# Assays:
# [1] = Clinical repeated dose study: safety assessments; type: in vivo, human; conditions: repeated doses up 25 mg once daily
# Description: (§1) The clinical study was a repeated dose study in 5 groups of Caucasian male subjects aged 18 to 55 years. Each subject received a single oral dose of Compound A/placebo on Day 1, followed by once daily doses on Days 8 to 35 (5 mg Compound A/placebo—Group 1) or Days 8 to 28 (1, 2.5, 10 and 25 mg Compound A/placebo—Groups 2 to 5). All doses were administered at the study center after a standard breakfast. Subjects in each dose group were allocated to study treatment in a ratio of 10 Compound A to 2 placebo. Blood samples for pharmacokinetic and pharmacodynamic (CETP activity, CETP concentration, HDL-C, LDL-C, total cholesterol, triglycerides) assessments were collected from prior to each dose and at intervals throughout the study until 336 hours after the last dose. Secondary pharmacodynamic endpoints (including apolipoproteins A1, A2, B, and E, HDL2-C, HDL3-C, phospholipids, HDL-free cholesterol [HDL-FC], HDL-cholesteryl ester [HDL-CE], HDL-phospholipids [HDL-PL], HDL-triglycerides [HDL-TG], and LDL particle size) were measured at intervals until the last day of dosing. Urine was collected for pharmacokinetics from pre dose and at intervals up to 72 hours after the first and last dose. Safety assessments including adverse events, blood pressure and pulse rate, ECGs, laboratory safety tests (including aldosterone) and physical examinations were conducted throughout both studies.
# [2] = system: CETP; assay: Clinical repeated dose study: plasma CETP concentration (ELISA); type: in vivo, human; conditions: for Maximum % change from baseline in CETP concentration: repeated oral doses, steady state, mean
# Description: as §1
# (§2) Plasma and urine concentrations of Compound A were determined using validated liquid chromatography with tandem mass spectrometry (LC/MS/MS) methods. The lower limit of quantification (LLQ) for both assays was 0.500 ng/mL. Plasma concentration of CETP was determined using a validated enzyme-linked immunosorbent assay (ELISA) method with a lower limit of quantification (LLQ) of 0.500 μg/mL. CETP activity was determined as the rate of [^3H]-labeled CE transfer from donor HDL to acceptor VLDL/LDL. [^3H]CE-labeled HDL was added to human plasma and incubated for 4 hours at 37° C. Non-HDL lipoproteins were precipitated and separated from HDL, and the amount of radioactivity in the supernatant was quantitated. CETP activity was determined as the difference of the radioactivity between the samples incubated at 37° C. and 4° C. HDL-C and LDL-C were measured by homogenous enzymatic colorimetric assay using a Modular analyser (Roche Diagnostics). Total cholesterol and triglycerides were measured by homogenous enzymatic assay using a Modular analyser (cholesterol oxidase peroxidase-peroxidase aminophenazone phenol [CHOP-PAP]) method and a glycerol phosphate oxidase [GPO-PAP] method, respectively. ApoA1, ApoA2, ApoB and ApoE were measured by immunoturbidimetry using reagents from Rolf Greiner Biochemica (Germany) and N-apoprotein standard serum from Siemens (Germany). LDL particle size was determined by gradient gel electrophoresis. HDL fraction was separated by a combined ultracentrifugation-precipitation method (Beta-quantification). HDL-2 and HDL-3 fractions were then separated by further ultracentrifugation. Total-cholesterol in HDL, HDL-2 and HLD-3 fractions, free cholesterol in HDL fraction, triglycerides in HDL fraction and phospholipids in plasma and HDL-fraction were measured using enzymatic methods and reagents from Diasys Diagnostics (Germany). The measurements were performed on an Olympus AU600 automatic analyzer and were calibrated using secondary standards from Roche Diagnostics (Total-cholesterol, triglycerides) and Diasys Diagnostics (free cholesterol, phospholipids), respectively. Esterified cholesterol was calculated as the difference between total-cholesterol and free cholesterol.
# (§3) The sample sizes for the study were chosen based on practical considerations rather than statistical power. The numbers of subjects in each group were considered to be adequate to assess the main objectives of each study. Subjects were allocated to Compound A or placebo in each group by means of a computer-generated randomization code. […]
# [3] = target: T1, CETP (Homo sapiens, UniProt P11597); assay: Clinical repeated dose study: plasma CETP activity; type: in vivo; conditions: for Maximum % change from baseline in CETP activity: repeated oral doses, steady state, mean
# T1 construct: from tissue; host or cells: plasma of Caucasian male subjects dosed with Compound A or placebo
# T1 sequence (P11597 18-493): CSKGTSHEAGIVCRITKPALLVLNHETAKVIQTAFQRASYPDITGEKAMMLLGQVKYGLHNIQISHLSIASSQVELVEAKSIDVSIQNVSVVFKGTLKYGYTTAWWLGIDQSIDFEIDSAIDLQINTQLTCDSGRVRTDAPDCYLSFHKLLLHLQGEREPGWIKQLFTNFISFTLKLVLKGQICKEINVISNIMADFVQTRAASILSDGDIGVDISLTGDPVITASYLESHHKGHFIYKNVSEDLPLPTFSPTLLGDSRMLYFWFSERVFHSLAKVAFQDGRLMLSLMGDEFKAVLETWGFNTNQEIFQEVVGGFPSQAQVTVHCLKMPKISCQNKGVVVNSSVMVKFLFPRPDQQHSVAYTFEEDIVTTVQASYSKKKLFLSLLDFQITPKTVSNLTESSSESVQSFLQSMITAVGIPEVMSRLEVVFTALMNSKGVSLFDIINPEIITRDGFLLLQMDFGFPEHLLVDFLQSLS
# Description: as §1, §2, §3
# [4] = system: HDL-C, LDL-C, total cholesterol, triglycerides; assay: Clinical repeated dose study: HDL-C, LDL-C, total cholesterol, triglycerides and secondary lipid variables; type: in vivo, human; conditions: for Maximum % change from baseline in HDL-C concentration / Maximum % change from baseline in LDL-C concentration / Maximum % change from baseline in Total cholesterol / Maximum % change from baseline in Triglycerides: repeated oral doses, steady state, mean
# Description: as §1, §2, §3
compound,measurement,setting,value
"CCOC(=O)N1c2ccc(C(F)(F)F)cc2[C@@H](N(Cc2cc(C(F)(F)F)cc(C(F)(F)F)c2)c2ncc(OCCCC(=O)O)cn2)C[C@H]1CC [Compound A, {4-[(2-{[3,5-bis(trifluoromethyl)benzyl][(2R,4S)-1-(ethoxycarbonyl)-2-ethyl-6-(trifluoromethyl)-1,2,3,4-tetrahydroquinolin-4-yl]amino}pyrimidin-5-yl)oxy]butanoic acid}]",effect on serum electrolyte or aldosterone concentrations,[1],no effect
same,"effects on blood pressure or heart rate, ECG variables, physical examination or laboratory safety tests",[1],no clinically significant effects
same,serious adverse events,[1],no serious adverse events
same,tolerability,[1],well tolerated
same,Maximum % change from baseline in CETP concentration,[2]; 1 mg once daily,128%
same,Maximum % change from baseline in CETP concentration,[2]; 2.5 mg once daily,144%
same,Maximum % change from baseline in CETP concentration,[2]; 5 mg once daily,215%
same,Maximum % change from baseline in CETP concentration,[2]; 10 mg once daily,249%
same,Maximum % change from baseline in CETP concentration,[2]; 25 mg once daily,280%
same,CETP concentration higher than baseline after cessation of dosing,[2]; 2 weeks following 10 mg and 25 mg,approximately 1.4 fold
same,CETP concentration after cessation of dosing (in words),[2]; within 2 weeks following 1 mg and 5 mg,approaching baseline values
same,Maximum % change from baseline in CETP activity,"[3]; 1 mg once daily, Caucasian male healthy subjects",−66.5%
same,Maximum % change from baseline in CETP activity,[3]; 2.5 mg once daily,−91.6%
same,Maximum % change from baseline in CETP activity,[3]; 5 mg once daily,−90.9%
same,Maximum % change from baseline in CETP activity,[3]; 10 mg once daily,−97.6%
same,Maximum % change from baseline in CETP activity,[3]; 25 mg once daily,−99.4%
same,CETP activity below baseline after last dose,[3]; 2 weeks following 10 and 25 mg dosing,approximately 50%
same,CETP activity after the last dose (in words),[3]; by 2 weeks following the lowest dose (1 mg),approaching baseline levels
same,time to maximum effect on CETP inhibition,"[3]; once daily dosing, each dose",≤ 1 week
same,CETP inhibition (in words),[3]; repeated once daily dosages as low as 2.5 mg,near complete CETP-inhibition
same,Maximum % change from baseline in HDL-C concentration,[4]; 1 mg once daily,37.9%
same,Maximum % change from baseline in LDL-C concentration,[4]; 1 mg once daily,−29.6%
same,Maximum % change from baseline in Total cholesterol,[4]; 1 mg once daily,−12.7%
same,Maximum % change from baseline in Triglycerides,[4]; 1 mg once daily,−50.2%
same,Maximum % change from baseline in HDL-C concentration,[4]; 2.5 mg once daily,95.6%
same,Maximum % change from baseline in LDL-C concentration,[4]; 2.5 mg once daily,−39.1%
same,Maximum % change from baseline in Total cholesterol,[4]; 2.5 mg once daily,−7.9%
same,Maximum % change from baseline in Triglycerides,[4]; 2.5 mg once daily,−45.8%
same,Maximum % change from baseline in HDL-C concentration,[4]; 5 mg once daily,118%
same,Maximum % change from baseline in LDL-C concentration,[4]; 5 mg once daily,−41.7%
same,Maximum % change from baseline in Total cholesterol,[4]; 5 mg once daily,−1.4%
same,Maximum % change from baseline in Triglycerides,[4]; 5 mg once daily,−20.3%
same,Maximum % change from baseline in HDL-C concentration,[4]; 10 mg once daily,140%
same,Maximum % change from baseline in LDL-C concentration,[4]; 10 mg once daily,−43.6%
same,Maximum % change from baseline in Total cholesterol,[4]; 10 mg once daily,3.7%
same,Maximum % change from baseline in Triglycerides,[4]; 10 mg once daily,−22.2%
same,Maximum % change from baseline in HDL-C concentration,[4]; 25 mg once daily,136%
same,Maximum % change from baseline in LDL-C concentration,[4]; 25 mg once daily,−53.2%
same,Maximum % change from baseline in Total cholesterol,[4]; 25 mg once daily,7.5%
same,Maximum % change from baseline in Triglycerides,[4]; 25 mg once daily,−31.4%
same,changes in LDL particle size,[4]; repeated doses 1 to 25 mg,no noteworthy changes
